Some test systems named below: NCI-H226; M14; HT-29; UACC-257; MOLT-4; HOP-92; KM12; CAKI-1; 786-0; SNB-75; HL-60; SF-539; LOX IMVI; HCC 2998; HOP-62; U-251; OVCAR-3; OVCAR-5; A498.
Common to all, as to experiment: DTP human tumour cell line panel, 48 h

SMILES strings stand for the structures.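 Where inhibition never reached the appropriate level, the endpoint shown equals the highest concentration tested. Otherwise, values were interpolated linearly from a five-concentration, 48-hour dose response in 96-well plates. GI50 = concentration required for 50% inhibition of growth.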 Calls of active or inactive are those of the source. Cut-off read from the data, not from the text of the source: active = GI50 up to about 1.1 µM and inactive = higher. Square brackets hold non-standard residues; d marks the D form. Peptide text beside a SMILES is read from it. * marks the point of attachment. ξ: configuration not given here. ξD = NC(CC(=O)O)C(=O)O; Ac3c = NC1(C(=O)O)CC1; Boc = CC(C)(C)OC(=O)*; OtBu = CC(C)(C)O* A value given as a limit tells only on which side of the number the result lay.

As a reminder, the GI50 is the concentration giving 50% growth inhibition.

With `OC(c1ccc(C(F)(F)F)cc1)C(F)(F)c1nc2ccccc2o1` (stereo unspecified), the GI50 in the experiment with NCI-H226, in the experiment with M14, with HT-29, in the experiment with UACC-257, in the experiment on MOLT-4 and in the experiment with HOP-92 was > 100 µM (inactive) each time. In addition, the GI50 in the experiment on KM12, in the experiment on CAKI-1, in the experiment on 786-0, in the experiment on SNB-75, in the experiment with HL-60 and in the experiment on SF-539 was > 100 µM (inactive) each time. The GI50 with LOX IMVI, with HCC 2998, with HOP-62 and with U-251 was > 100 µM (inactive) in each case.
On to `O=C(CSc1nccc(=O)[nH]1)c1ccccc1`, for which the GI50 in the experiment with M14, in the experiment with HT-29, in the experiment with UACC-257, with MOLT-4, in the experiment with HOP-92 and in the experiment with KM12 was > 100 µM (inactive) throughout. In addition, the GI50 is > 100 µM (inactive) with CAKI-1; > 100 µM (inactive) in the experiment on 786-0; > 100 µM (inactive) in the experiment on SNB-75; 40.7 µM (inactive) in the experiment on OVCAR-3; > 100 µM (inactive) in the experiment with HL-60; 39.8 µM (inactive) in the experiment on SF-539. The GI50 with LOX IMVI was 78.3 µM (inactive); in the experiment with OVCAR-5 it was > 100 µM (inactive); in the experiment with HOP-62 it was 63.1 µM (inactive); in the experiment with U-251, > 100 µM (inactive).
`COC(=O)C1(NC(=O)C(CC(=O)OC(C)(C)C)NC(=O)OC(C)(C)C)CC1` (stereo unspecified) (Boc-[ξD](OtBu)-[Ac3c]-OMe): the GI50 with NCI-H226, in the experiment on M14, with HT-29, in the experiment on UACC-257, in the experiment with MOLT-4 and in the experiment with KM12 was > 100 µM (inactive) each time. Further, the GI50 in the experiment on CAKI-1, in the experiment on 786-0, in the experiment with SNB-75, in the experiment with OVCAR-3, in the experiment with A498 and in the experiment with SF-539 was > 100 µM (inactive) each time. The GI50 in the experiment with LOX IMVI, in the experiment with OVCAR-5, with HCC 2998, with HOP-62 and in the experiment on U-251 was > 100 µM (inactive) throughout.
For the molecule `CCc1n[nH]c(=O)n1-n1c(C)ccc1C`, the GI50 in the experiment with NCI-H226, with M14, in the experiment with HT-29, in the experiment on UACC-257, in the experiment on MOLT-4 and in the experiment on KM12 was > 100 µM (inactive) throughout. Besides, the GI50 with CAKI-1, in the experiment on 786-0, with SNB-75, with OVCAR-3, in the experiment with A498 and with LOX IMVI was > 100 µM (inactive) in each case. For the same molecule, the GI50 in the experiment on OVCAR-5, in the experiment with HCC 2998, with HOP-62 and with U-251 was > 100 µM (inactive) throughout.
Take `CC[C@H](NC(=O)OC(C)(C)C)C(=O)NCP(=O)(OCc1ccc([N+](=O)[O-])cc1)OCc1ccc([N+](=O)[O-])cc1`: the GI50 was 39.4 µM (inactive) in the experiment on NCI-H226; 30.9 µM (inactive) with M14; 17.7 µM (inactive) in the experiment on HT-29; 11.9 µM (inactive) with UACC-257; 21.5 µM (inactive) with MOLT-4; 31.5 µM (inactive) in the experiment on HOP-92. Also, the GI50 in the experiment on KM12 was 26.8 µM (inactive); in the experiment on CAKI-1 it was 43.2 µM (inactive); in the experiment on 786-0, 92.9 µM (inactive); in the experiment on SNB-75, 38.9 µM (inactive); in the experiment on OVCAR-3 it was 11 µM (inactive); in the experiment with HL-60, 18.2 µM (inactive). The GI50 is 31.8 µM (inactive) in the experiment on SF-539; 32.4 µM (inactive) with LOX IMVI; 48.2 µM (inactive) in the experiment with OVCAR-5; 36.2 µM (inactive) with HCC 2998; 38.4 µM (inactive) with HOP-62; 21.6 µM (inactive) in the experiment with U-251.
For `CCCSc1cc(Cl)c(C)cc1S(=O)(=O)n1ccnc1O`, the GI50 in the experiment on NCI-H226, in the experiment on M14, in the experiment with HT-29, with UACC-257, in the experiment with MOLT-4 and in the experiment on KM12 was > 100 µM (inactive) throughout. Also, the GI50 in the experiment on CAKI-1 is > 100 µM (inactive); with 786-0, > 100 µM (inactive); with SNB-75, 20.1 µM (inactive); with OVCAR-3 it was > 100 µM (inactive); in the experiment with A498, > 100 µM (inactive); in the experiment with SF-539, > 100 µM (inactive). The GI50 in the experiment with LOX IMVI, in the experiment with OVCAR-5, with HCC 2998, in the experiment on HOP-62 and in the experiment with U-251 was > 100 µM (inactive) in each case.
For `COC(=O)/C=C/C(=O)C1C(C(=O)OC)C2(C(=O)OC)CCC1(C(=O)OC)N2` (stereo unspecified), the GI50 in the experiment on M14 is > 100 µM (inactive); in the experiment with HT-29 it was > 100 µM (inactive); in the experiment with MOLT-4 it was > 100 µM (inactive); in the experiment with HOP-92 it was < 0.01 µM (active); with KM12 it was > 100 µM (inactive); with CAKI-1, > 100 µM (inactive). Besides, the GI50 with 786-0, in the experiment on OVCAR-3, with HL-60, in the experiment on SF-539, in the experiment with OVCAR-5 and in the experiment on HCC 2998 was > 100 µM (inactive) each time. Besides, the GI50 in the experiment on HOP-62 and in the experiment with U-251 was > 100 µM (inactive) throughout.
In the case of `NC1=Nc2ccccc2Sc2nc3ccccc3n21`, the GI50 was 10.4 µM (inactive) in the experiment with NCI-H226; 5.46 µM (inactive) in the experiment on M14; 9.12 µM (inactive) in the experiment with HT-29; 26.1 µM (inactive) in the experiment on UACC-257; 4.54 µM (inactive) in the experiment with MOLT-4; 22.7 µM (inactive) with HOP-92. Further, the GI50 in the experiment on KM12 was 27.2 µM (inactive); in the experiment on 786-0, 2.23 µM (inactive); in the experiment with SNB-75, 15.6 µM (inactive); in the experiment with OVCAR-3, 8.02 µM (inactive); in the experiment with HL-60, 2.4 µM (inactive); in the experiment on SF-539, 21.1 µM (inactive). In addition, the GI50 with LOX IMVI was 18.9 µM (inactive); in the experiment on OVCAR-5, 8.15 µM (inactive); in the experiment with HOP-62 it was 52.5 µM (inactive); with U-251 it was 5.9 µM (inactive).
As for `COc1cc(OCc2ccc3oc(=O)c(-c4ccccc4)nc3c2)cc(OC)c1OC`, the GI50 in the experiment with NCI-H226, with M14, in the experiment with HT-29, with UACC-257, in the experiment with MOLT-4 and in the experiment on 786-0 was > 100 µM (inactive) each time. Besides, the GI50 with SNB-75, in the experiment on OVCAR-3, in the experiment on A498, in the experiment on SF-539, in the experiment with LOX IMVI and in the experiment on OVCAR-5 was > 100 µM (inactive) each time. The GI50 in the experiment with HCC 2998, in the experiment with HOP-62 and in the experiment with U-251 was > 100 µM (inactive) each time.
On to `CCOc1cc2ccc3c4cc(OC)c(OC)cc4cnc3c2cc1OCC`, for which the GI50 in the experiment with M14, in the experiment on HT-29, in the experiment on UACC-257, in the experiment with MOLT-4, with KM12 and in the experiment with CAKI-1 was > 100 µM (inactive) each time. Moreover, the GI50 in the experiment with 786-0, in the experiment with SNB-75, in the experiment with OVCAR-3, in the experiment with A498, in the experiment on SF-539 and in the experiment on OVCAR-5 was > 100 µM (inactive) in each case. The GI50 with HCC 2998, with HOP-62 and with U-251 was > 100 µM (inactive) throughout.
As for `Cc1ccc(S(=O)(=O)n2cncc2CO)cc1`, the GI50 with NCI-H226, in the experiment with M14, with HT-29, in the experiment on UACC-257, with MOLT-4 and in the experiment on KM12 was > 100 µM (inactive) each time. Besides, the GI50 with CAKI-1, in the experiment with 786-0, in the experiment with SNB-75, in the experiment on OVCAR-3, in the experiment on HL-60 and in the experiment with SF-539 was > 100 µM (inactive) throughout. Also, the GI50 in the experiment on LOX IMVI, with OVCAR-5, with HCC 2998, with HOP-62 and with U-251 was > 100 µM (inactive) each time.
In the case of `O=[N+]([O-])/C(C(Cl)=C(Cl)Cl)=C(/Nc1cccc2cccnc12)n1nnc2ccccc21`, the GI50 was 23.2 µM (inactive) in the experiment with NCI-H226; 12.2 µM (inactive) in the experiment on M14; 17.7 µM (inactive) in the experiment on HT-29; 30.3 µM (inactive) in the experiment with UACC-257; 3.57 µM (inactive) in the experiment on MOLT-4; 16 µM (inactive) with KM12. Also, the GI50 is 13.5 µM (inactive) in the experiment with CAKI-1; 14.3 µM (inactive) in the experiment with 786-0; 19.4 µM (inactive) in the experiment with SNB-75; 8.18 µM (inactive) in the experiment on OVCAR-3; 13.4 µM (inactive) with SF-539; 21.6 µM (inactive) in the experiment with OVCAR-5. For the same molecule, the GI50 with HCC 2998 is 44.1 µM (inactive); with HOP-62, 19.2 µM (inactive).

Values taken from ChEMBL document CHEMBL1201862, “PubChem BioAssay data set” (2004).
